Experimental data as given in patent US10858393B2, “Crystal of reduced glutathione and method for producing same” (KYOWA HAKKO BIO CO., LTD., priority 2016, dated 2020).
Where two headings read alike, the source gives them in different places.

Tests used:
[1] = 100 g/L in water, hermetically sealed, 25° C. or 40° C., FIG. 1
Procedure: The vertical axis represents the peak area of L-cysteinyl-L-glycine with respect to the peak area of reduced glutathione which is taken as 100 in an HPLC analysis of the aqueous solution. […] In FIG. 1, the white circles indicate the results at 40° C., and the black lozenges indicate the results at 25° C.
An α-type crystal of reduced glutathione (manufactured by Kojin Co., Ltd.) was dissolved in water, and thereafter, the solution was adjusted to 100 g/L and hermetically sealed and placed in a thermostat bath at 25° C. or 40° C. while stirring. These reduced glutathione aqueous solutions were sampled over time and subjected to an HPLC analysis.

[2] = cited from earlier work

Structure (SMILES): N[C@@H](CCC(=O)N[C@@H](CS)C(=O)NCC(=O)O)C(=O)O [reduced glutathione, γ-L-glutamyl-L-cysteinyl-L-glycine]
- stability in aqueous solution (formation of L-cysteinyl-L-glycine over time, HPLC) [1]: decomposed over time in a temperature-dependent manner to produce L-cysteinyl-L-glycine
- saturation solubility in water ([2]; 10° C.): 83 mg/mL
- saturation solubility in water ([2]; 25° C.): 130 mg/mL
